How the values were obtained:
OVCAR-5 (Ovarian Cancer) = experiment: NCI five-dose SRB assay; type: cell-based; conditions: Homo sapiens, 48 h
A498 (Renal Cancer) = experiment: NCI five-dose SRB assay; type: cell-based; conditions: Homo sapiens, 48 h
[1] = test system: Breast Cancer cell lines (MG_MID); experiment: NCI five-dose SRB assay; type: cell-based; conditions: Homo sapiens, 48 h
MCF-7 cells = experiment: Chemical synthetic lethality: MTT after preincubation with BRCA1 inhibitor Bractoppin; type: cell-based; conditions: Homo sapiens, MCF7; MCF-7, 30 min preincubation with Bractoppin, 72 h MTT; read-out: IC50 in the case of BRCA1 inhibition
[2] = test system: HCT-116 p53 (−/−) colon cancer cells; experiment: MTT assay of cell viability; conditions: Homo sapiens, HCT-116, 72 h
Excerpt: The cell lines used in our work were kindly provided by a Collection at the Institute of Molecular Biology and Genetics, National Academy of Sciences of Ukraine (Kyiv, Ukraine).

[3] = test system: panel of 60 cancer cell lines; experiment: NCI DTP one-dose primary anticancer assay (10^-5 M, SRB)

SMILES: CCOC(=O)c1ccc(NC(=O)CSC(CC(=O)c2sc(Nc3ccccn3)nc2C)c2ccccc2F)cc1 (stereo not shown) [Compound 4, Ethyl 4-[[2-[1-(2-Fluorophenyl)-3-[4-methyl-2-(2-pyridylamino)thiazol-5-yl]-3-oxopropyl]sulfanylacetyl]amino]benzoate]
- GI50 (OVCAR-5 (Ovarian Cancer)): 74.4 µM
- GI50 (A498 (Renal Cancer)): 69.2 µM
- GI50 [1]: 14.4 µM
- IC50 (MCF-7 cells): 0.7 µM
- IC50 [2]: 3.43 ± 0.9 µM
- Mean Growth, % ([3]; 10 μM, 48 h, 60 cell lines): −2.78%
- Range of Growth, % ([3]; 10 μM, 48 h, 60 cell lines): −76.78–41.12%
- Positive Cytostatic Effect ([3]; 10 μM, number of cell lines with percent growth from 0 to 50 / total number of cell lines): 35/60
- Positive Cytotoxic Effect ([3]; 10 μM, number of cell lines with percent growth of <0 / total number of cell lines): 25/60
- inhibition at 10 µM ([3]; Homo sapiens, 48 h, read-out: growth inhibition of all 60 tested cancer cell lines): > 50%

— publication PMC9570594, “Development of Novel Pyridine-Thiazole Hybrid Molecules as Potential Anticancer Agents” (Molecules, 2022)
